Two compounds from publication PMC8213057, “Targeting ALK2: An Open Science Approach to Developing Therapeutics for the Treatment of Diffuse Intrinsic Pontine Glioma” (Journal of Medicinal Chemistry, 2020) can be followed below.

Assay [1] concerns the target T1, EPHB4 (Homo sapiens, UniProt P54760).
T1 sequence (P54760 16-987): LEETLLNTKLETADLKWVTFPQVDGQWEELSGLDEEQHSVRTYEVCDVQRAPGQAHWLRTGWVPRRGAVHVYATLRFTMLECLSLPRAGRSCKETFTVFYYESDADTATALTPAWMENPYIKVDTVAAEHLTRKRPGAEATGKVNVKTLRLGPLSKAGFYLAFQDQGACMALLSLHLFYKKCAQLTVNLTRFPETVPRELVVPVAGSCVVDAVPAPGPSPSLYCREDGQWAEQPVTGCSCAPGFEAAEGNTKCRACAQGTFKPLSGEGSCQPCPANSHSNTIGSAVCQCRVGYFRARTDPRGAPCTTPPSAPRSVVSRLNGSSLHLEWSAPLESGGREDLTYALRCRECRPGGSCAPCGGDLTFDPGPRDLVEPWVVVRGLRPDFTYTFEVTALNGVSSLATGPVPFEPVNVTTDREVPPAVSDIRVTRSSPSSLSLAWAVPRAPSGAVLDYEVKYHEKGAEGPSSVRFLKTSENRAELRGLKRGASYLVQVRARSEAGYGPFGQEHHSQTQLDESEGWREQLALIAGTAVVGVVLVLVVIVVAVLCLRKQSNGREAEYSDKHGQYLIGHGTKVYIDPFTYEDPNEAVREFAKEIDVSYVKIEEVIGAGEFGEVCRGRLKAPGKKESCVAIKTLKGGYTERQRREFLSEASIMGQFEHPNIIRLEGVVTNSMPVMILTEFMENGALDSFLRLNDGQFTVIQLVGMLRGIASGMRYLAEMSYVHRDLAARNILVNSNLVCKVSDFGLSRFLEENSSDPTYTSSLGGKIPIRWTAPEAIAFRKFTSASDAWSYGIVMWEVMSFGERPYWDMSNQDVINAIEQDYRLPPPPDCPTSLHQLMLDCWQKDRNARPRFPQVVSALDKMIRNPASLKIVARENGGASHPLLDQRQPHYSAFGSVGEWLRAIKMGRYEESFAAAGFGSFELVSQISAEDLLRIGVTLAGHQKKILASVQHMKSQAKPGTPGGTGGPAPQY
The settings on record: 1 μM; Run 1, Run 2.

Assay [2] has as its target T2, TYRO3/SKY (Homo sapiens, UniProt Q06418).
T2 sequence (Q06418 41-890): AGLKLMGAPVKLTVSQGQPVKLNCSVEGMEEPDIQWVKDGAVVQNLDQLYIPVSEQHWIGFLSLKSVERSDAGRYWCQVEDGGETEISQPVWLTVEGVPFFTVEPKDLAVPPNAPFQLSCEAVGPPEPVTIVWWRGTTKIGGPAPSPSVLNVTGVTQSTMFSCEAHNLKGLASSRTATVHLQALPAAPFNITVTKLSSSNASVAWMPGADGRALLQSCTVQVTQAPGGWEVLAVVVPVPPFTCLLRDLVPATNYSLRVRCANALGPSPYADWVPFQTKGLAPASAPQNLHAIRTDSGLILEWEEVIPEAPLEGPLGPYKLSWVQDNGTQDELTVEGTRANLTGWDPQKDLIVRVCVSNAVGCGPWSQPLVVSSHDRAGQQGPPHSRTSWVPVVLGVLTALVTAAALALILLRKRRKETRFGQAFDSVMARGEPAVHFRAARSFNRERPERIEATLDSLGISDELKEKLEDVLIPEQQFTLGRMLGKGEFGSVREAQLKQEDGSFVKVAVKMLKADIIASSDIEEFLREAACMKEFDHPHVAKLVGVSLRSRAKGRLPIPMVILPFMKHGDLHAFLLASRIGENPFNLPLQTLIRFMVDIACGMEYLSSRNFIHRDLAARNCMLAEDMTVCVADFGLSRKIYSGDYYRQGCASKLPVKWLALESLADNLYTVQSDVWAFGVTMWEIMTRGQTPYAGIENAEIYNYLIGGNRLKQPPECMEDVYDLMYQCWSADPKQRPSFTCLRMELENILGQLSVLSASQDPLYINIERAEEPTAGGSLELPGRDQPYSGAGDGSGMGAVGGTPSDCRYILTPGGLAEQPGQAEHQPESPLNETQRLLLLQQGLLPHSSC
The settings on record: 1 μM; Run 1, Run 2.

In assay [3] the target is CDK6/cyclin D3 (Homo sapiens, UniProt Q00534). The experiment in a line: biochemical. The settings on record: read-out: % enzyme activity, 1 μM; Run 1, Run 2.
CDK6/cyclin D3, sequence (Q00534 whole entry): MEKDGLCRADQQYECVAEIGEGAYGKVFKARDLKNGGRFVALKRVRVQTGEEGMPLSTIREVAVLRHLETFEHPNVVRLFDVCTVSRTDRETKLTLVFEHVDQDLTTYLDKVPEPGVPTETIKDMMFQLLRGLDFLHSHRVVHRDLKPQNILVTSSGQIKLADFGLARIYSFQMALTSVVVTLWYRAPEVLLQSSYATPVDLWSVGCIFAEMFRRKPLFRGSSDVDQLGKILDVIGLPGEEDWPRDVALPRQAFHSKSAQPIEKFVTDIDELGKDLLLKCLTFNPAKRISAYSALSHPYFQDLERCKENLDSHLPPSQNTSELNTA
CDK6/cyclin D3, sequence (P30281 whole entry partner): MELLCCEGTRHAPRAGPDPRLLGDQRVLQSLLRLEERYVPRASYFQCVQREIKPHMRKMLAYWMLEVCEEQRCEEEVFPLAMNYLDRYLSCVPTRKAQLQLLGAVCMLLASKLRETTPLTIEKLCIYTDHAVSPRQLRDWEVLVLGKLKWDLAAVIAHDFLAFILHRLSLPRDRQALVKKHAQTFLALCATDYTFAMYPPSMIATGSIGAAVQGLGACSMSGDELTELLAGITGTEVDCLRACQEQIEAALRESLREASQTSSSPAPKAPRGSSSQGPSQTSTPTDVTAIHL
Assay [4] has as its target BLK (Homo sapiens, UniProt P51451). The experiment in a line: biochemical. The settings on record: read-out: % enzyme activity, 1 μM; Run 1, Run 2.

SMILES strings stand for the structures.

BLK, sequence (P51451 whole entry): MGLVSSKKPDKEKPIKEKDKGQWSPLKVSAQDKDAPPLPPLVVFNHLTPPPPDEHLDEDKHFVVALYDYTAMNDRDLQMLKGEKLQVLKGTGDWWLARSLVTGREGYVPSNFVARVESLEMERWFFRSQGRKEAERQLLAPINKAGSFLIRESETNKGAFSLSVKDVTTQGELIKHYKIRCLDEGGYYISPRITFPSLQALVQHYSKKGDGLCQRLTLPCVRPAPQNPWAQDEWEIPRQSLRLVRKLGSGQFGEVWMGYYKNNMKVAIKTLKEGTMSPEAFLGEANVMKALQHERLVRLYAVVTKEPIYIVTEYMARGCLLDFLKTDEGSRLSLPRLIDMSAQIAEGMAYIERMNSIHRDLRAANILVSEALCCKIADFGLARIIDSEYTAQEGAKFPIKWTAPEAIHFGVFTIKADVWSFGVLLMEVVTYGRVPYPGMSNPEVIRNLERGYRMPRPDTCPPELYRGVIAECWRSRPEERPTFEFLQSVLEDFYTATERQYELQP

Consider `COc1cc(-c2cncc(-c3ccc(N4CCN(C)CC4)cc3)c2C)cc(F)c1C(N)=O` [Compound 26a, 2-Fluoro-6-methoxy-4-(4-methyl-5-(4-(4-methylpiperazin-1-yl)phenyl)pyridin-3-yl)benzamide], for which the “% enzyme activity” value amounted to 93.42% in assay [1] and 83.48% in assay [2]. Further, the remaining activity at 1 µM in assay [3] is 86.3%; in assay [4], 97.2%.

In the case of `COc1cc(-c2cncc(-c3ccc(N4C[C@@H](C)N(C)[C@@H](C)C4)cc3)c2C)cc(F)c1C(N)=O` [Compound 26c, 2-Fluoro-6-methoxy-4-(4-methyl-5-(4-((3R,5S)-3,4,5-trimethylpiperazin-1-yl)phenyl)pyridin-3-yl)benzamide], the “% enzyme activity” value in assay [1] amounted to 91.07%; in assay [2], 93.66%. The remaining activity at 1 µM in assay [3] was determined as 103%; in assay [4], 104%.
